PubChem BioAssay AID330 (DTP/NCI, 2004)
“And” between values parts separate entries of the source, which are not always exact repeats. Identical values can stand only once. Toxic doses and inconclusive results are not listed.

Tested on: P388 leukemia ip, CD2F1 mice, survival T/C
Assay: NCI In Vivo Anticancer Drug Screen. Data for tumor model P388 Leukemia (intraperitoneal) in CD2F1 (CDF1) mice
Conditions: endpoint: median survival time, higher = longer survival
Summary of the method: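 Mice carrying the transplanted tumor received test compound or vehicle. Survival was recorded in each group, and the value is the treated-group measurement divided by that of the vehicle-treated control group.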

[1] = dose: 100.0 mg/kg/injection, schedule: Q04DX002 (ip), vehicle: saline with Tween-80
[2] = dose: 200.0 mg/kg/injection, schedule: Q04DX002 (ip), vehicle: saline with Tween-80
[3] = dose: 100.0 mg/kg/injection, schedule: Q01DX005 (ip), vehicle: saline with Tween-80
[4] = dose: 200.0 mg/kg/injection, schedule: Q01DX005 (ip), vehicle: saline with Tween-80
[5] = dose: 50.0 mg/kg/injection, schedule: Q01DX005 (ip), vehicle: saline with Tween-80
[6] = dose: 60.0 mg/kg/injection, schedule: Q01DX005 (ip), vehicle: saline with Tween-80
[7] = dose: 120.0 mg/kg/injection, schedule: Q01DX005 (ip), vehicle: saline with Tween-80

## COC(=O)c1ccc(OC)c(OC)c1-c1c(C(=O)OC)c(C(=O)OC)c2n1CCc1cc3c(cc1-2)OCO3
dose: 50.0 mg/kg/injection, schedule: Q04DX002 (ip), vehicle: saline with Tween-80
  T/C: 103 % of control
[1]
  T/C: 100 % of control
[2]
  T/C: 90 % of control

## CN1CCCN(C)C1c1cc(Cl)ccc1O
dose: 6.25 mg/kg/injection, schedule: Q01DX009 (ip), vehicle: saline sonified
  T/C: 90 % of control
dose: 12.5 mg/kg/injection, schedule: Q01DX009 (ip), vehicle: saline sonified
  T/C: 100 % of control
dose: 25.0 mg/kg/injection, schedule: Q01DX009 (ip), vehicle: saline sonified
  T/C: 90 % of control

## CCC1CN2CCO[Si](CC[Si](C)(C)C)(OCC2)O1 (stereo not drawn)
dose: 50.0 mg/kg/injection, schedule: Q01DX005 (ip), vehicle: Klucel (hydroxypropylcellulose) (HPC)
  T/C: 97 % of control
dose: 100.0 mg/kg/injection, schedule: Q01DX005 (ip), vehicle: Klucel (hydroxypropylcellulose) (HPC)
  T/C: 97 % of control
dose: 200.0 mg/kg/injection, schedule: Q01DX005 (ip), vehicle: Klucel (hydroxypropylcellulose) (HPC)
  T/C: 101 % of control and 104 % of control

## Oc1ccc2ccccc2c1/C=N/NC(=S)N/N=C/c1c(O)ccc2ccccc12
dose: 0.38 mg/kg/injection, schedule: Q01DX005 (ip), vehicle: saline with Tween-80
  T/C: 97 % of control
dose: 0.75 mg/kg/injection, schedule: Q01DX005 (ip), vehicle: saline with Tween-80
  T/C: 97 % of control
dose: 1.5 mg/kg/injection, schedule: Q01DX005 (ip), vehicle: saline with Tween-80
  T/C: 90 % of control and 92 % of control
dose: 6.0 mg/kg/injection, schedule: Q01DX005 (ip), vehicle: saline with Tween-80
  T/C: 86 % of control
[3]
  T/C: 96 % of control
[4]
  T/C: 116 % of control

## COC(=O)C12CCC(C(=O)OC)(CC1)n1c(=O)n(-c3ccccc3)c(=O)n12
[5]
  T/C: 102 % of control
[3]
  T/C: 102 % of control
[4]
  T/C: 102 % of control

## CC(=O)Nc1ccc(SSc2ccc(NC(C)=O)s2)s1
dose: 50.0 mg/kg/injection, schedule: Q01DX001 (ip), vehicle: saline with Tween-80
  T/C: 86 % of control
dose: 200.0 mg/kg/injection, schedule: Q01DX001 (ip), vehicle: saline with Tween-80
  T/C: 90 % of control
dose: 400.0 mg/kg/injection, schedule: Q01DX001 (ip), vehicle: saline with Tween-80
  T/C: 97 % of control

## O=c1c(Cc2c(-c3ccccc3)[nH]c3ccccc23)coc2ccccc12
[6]
  T/C: 90 % of control
[7]
  T/C: 89 % of control

## Cc1ccc(N=C2c3ccccc3-c3ccc(NC(=O)c4ccccc4)cc32)cc1
dose: 3.12 mg/kg/injection, schedule: Q01DX005 (ip), vehicle: saline with Tween-80
  T/C: 93 % of control
dose: 6.25 mg/kg/injection, schedule: Q01DX005 (ip), vehicle: saline with Tween-80
  T/C: 93 % of control
dose: 12.5 mg/kg/injection, schedule: Q01DX005 (ip), vehicle: saline with Tween-80
  T/C: 86 % of control
[5]
  T/C: 86 % of control

## N=CC1=C(O)CCOC1=O
dose: 100.0 mg/kg/injection, schedule: Q01DX001 (ip), vehicle: saline
  T/C: 99 % of control
dose: 200.0 mg/kg/injection, schedule: Q01DX001 (ip), vehicle: saline
  T/C: 99 % of control
dose: 400.0 mg/kg/injection, schedule: Q01DX001 (ip), vehicle: saline
  T/C: 100 % of control

## C=Cn1c([N+](=O)[O-])cnc1/C=C/c1ccc(C(=O)N(CCCC)CCCC)cc1
[1]
  T/C: 100 % of control
[2]
  T/C: 100 % of control
dose: 400.0 mg/kg/injection, schedule: Q04DX002 (ip), vehicle: saline with Tween-80
  T/C: 89 % of control

## CCOc1ccc(/C=N/NC(=O)CC2CCCCC2)cc1OC
[6]
  T/C: 90 % of control
[7]
  T/C: 87 % of control
dose: 240.0 mg/kg/injection, schedule: Q01DX005 (ip), vehicle: saline with Tween-80
  T/C: 95 % of control

## COc1cc(C(c2cc3c(cc2O)OCO3)N2CCOCC2)ccc1O (stereo not drawn)
[6]
  T/C: 116 % of control
[7]
  T/C: 106 % of control

## CO[C@@]12[C@@H]3N[C@@H]3CN1C1=C(C(=O)C(N3CCCC3)=C(C)C1=O)[C@@H]2COC(N)=O
dose: 0.78 mg/kg/injection, schedule: Q01DX005 (ip), vehicle: saline with Tween-80
  T/C: 193 % of control
dose: 3.75 mg/kg/injection, schedule: Q01DX005 (ip), vehicle: saline with Tween-80
  T/C: 186 % of control
dose: 10.4 mg/kg/injection, schedule: Q01DX005 (ip), vehicle: saline with Tween-80
  T/C: 214 % of control
dose: 17.4 mg/kg/injection, schedule: Q01DX005 (ip), vehicle: saline with Tween-80
  T/C: 214 % of control
dose: 25.0 mg/kg/injection, schedule: Q01DX005 (ip), vehicle: saline with Tween-80
  T/C: 87 % of control
